Test system: patients with advanced or metastatic breast cancer
Experiment: Adverse events (CTCAE Ver. 4.0), dose-limiting toxicities and dose reductions under everolimus
Assay type: in vivo, human
Description: This was a prospective, observational PK study. Patients with advanced or metastatic breast cancer who received everolimus between November 2015 and November 2018 at Kobe City Medical Center General Hospital were enrolled in this study. The main inclusion criteria included the following: age ≥20 years; Eastern Cooperative Oncology Group (ECOG) performance status (PS): 0 or 1; and adequate bone marrow, liver, and renal function. The main exclusion criteria were interstitial pneumonia or pulmonary fibrosis, HBsAg positive, and psychiatric or psychological symptoms that made it difficult to participate in the study. Every participant provided written informed consent. This study was conducted in accordance with the Declaration of Helsinki and approved by the Institutional Review Board, under Approval Number zn151103.
Based on the physician’s decision, the patients were prescribed a starting dose of either 5 or 10 mg everolimus once daily. The everolimus dose was reduced when a patient experienced adverse events higher than grade 2. The first reduced dose was 5 mg once daily, followed by the second reduced dose of 2.5 mg once daily or 5 mg every alternate day. In addition, everolimus doses could be increased if adverse events improved to grade 1 or less, or deemed inefficacious. The adverse events were evaluated weekly for the first month and then every 1–4 weeks, according to the Common Terminology Criteria for Adverse Events Ver. 4.0.
Statistical differences in everolimus trough concentrations, doses and body weights between patient cohorts were assessed using the Mann–Whitney test. Progression-free survival (PFS) was assessed using the Kaplan-Meier method and the log-rank test. All statistical analyses were performed using GraphPad Prism version 7.03 (San Diego, CA). p < 0.05 was considered statistically significant.

[1] = All patients (n = 18), Grade All
[2] = Initial dose: 5 mg/day (n = 6), Grade 1
[3] = Initial dose: 5 mg/day (n = 6), Grade 2

## CO[C@H]1C[C@@H]2CC[C@@H](C)[C@@](O)(O2)C(=O)C(=O)N2CCCC[C@H]2C(=O)O[C@H]([C@H](C)C[C@@H]2CC[C@@H](OCCO)[C@H](OC)C2)CC(=O)[C@H](C)/C=C(\C)[C@@H](O)[C@@H](OC)C(=O)[C@H](C)C[C@H](C)/C=C/C=C/C=C/1C [everolimus]
All patients (n = 18), Grade 1
  Adverse event, n: Diarrhea: 1
  Adverse event, n: Dysgeusia: 4
  Adverse event, n: Epistaxis: 6
  Adverse event, n: High cholesterol: 9
  Adverse event, n: Hyperglycemia: 4
  Adverse event, n: Hypertriglyceridemia: 8
  Adverse event, n: Hypokalemia: 6
  Adverse event, n: Interstitial lung disease: 3
  Adverse event, n: Malaise: 6
  Adverse event, n: Mucositis oral: 7
  Adverse event, n: Neutrophil count decreased: 2
  Adverse event, n: Platelet decrease: 9
  Adverse event, n: Rash: 11
All patients (n = 18), Grade 2
  Adverse event, n: Diarrhea: 4
  Adverse event, n: Dysgeusia: 1
  Adverse event, n: Epistaxis: 0
  Adverse event, n: High cholesterol: 2
  Adverse event, n: Hyperglycemia: 1
  Adverse event, n: Hypertriglyceridemia: 4
  Adverse event, n: Hypokalemia: 1
  Adverse event, n: Interstitial lung disease: 2
  Adverse event, n: Malaise: 1
  Adverse event, n: Mucositis oral: 10
  Adverse event, n: Neutrophil count decreased: 3
  Adverse event, n: Platelet decrease: 0
  Adverse event, n: Rash: 3
All patients (n = 18), Grade 3
  Adverse event, n: Diarrhea: 0
  Adverse event, n: Dysgeusia: 0
  Adverse event, n: Epistaxis: 0
  Adverse event, n: High cholesterol: 0
  Adverse event, n: Hyperglycemia: 0
  Adverse event, n: Hypertriglyceridemia: 0
  Adverse event, n: Hypokalemia: 1
  Adverse event, n: Interstitial lung disease: 0
  Adverse event, n: Malaise: 0
  Adverse event, n: Mucositis oral: 0
  Adverse event, n: Neutrophil count decreased: 1
  Adverse event, n: Platelet decrease: 0
  Adverse event, n: Rash: 0
All patients (n = 18), Grade 4
  Adverse event, n: Diarrhea: 0
  Adverse event, n: Dysgeusia: 0
  Adverse event, n: Epistaxis: 0
  Adverse event, n: High cholesterol: 0
  Adverse event, n: Hyperglycemia: 0
  Adverse event, n: Hypertriglyceridemia: 0
  Adverse event, n: Hypokalemia: 1
  Adverse event, n: Interstitial lung disease: 0
  Adverse event, n: Malaise: 0
  Adverse event, n: Mucositis oral: 0
  Adverse event, n: Neutrophil count decreased: 0
  Adverse event, n: Platelet decrease: 0
  Adverse event, n: Rash: 0
[1]
  Adverse event, n: Diarrhea: 5
  Adverse event, n: Dysgeusia: 5
  Adverse event, n: Epistaxis: 6
  Adverse event, n: High cholesterol: 11
  Adverse event, n: Hyperglycemia: 5
  Adverse event, n: Hypertriglyceridemia: 12
  Adverse event, n: Hypokalemia: 9
  Adverse event, n: Interstitial lung disease: 5
  Adverse event, n: Malaise: 7
  Adverse event, n: Mucositis oral: 17
  Adverse event, n: Neutrophil count decreased: 6
  Adverse event, n: Platelet decrease: 9
  Adverse event, n: Rash: 14
DLT (n = 13) vs no DLT (n = 18), Mann-Whitney test, p = 0.0058
  trough concentrations at DLTs compared with trough concentrations in the absence of DLTs: significantly higher
Dose 5 mg, BW 36.1–40.0 kg
  number of patients, DLTs (−): 1
Dose 5 mg, BW 40.1–45.0 kg
  number of patients, DLTs (−): 1
Dose 5 mg, BW 45.1–50.0 kg
  number of patients, DLTs (+): 1
Dose 5 mg, BW 50.1–55.0 kg
  number of patients, DLTs (+): 1
  number of patients, DLTs (−): 3
Dose 5 mg, BW 55.1–60.0 kg
  number of patients, DLTs (+): 3
  number of patients, DLTs (−): 2
Dose 10 mg, BW 36.1–40.0 kg
  number of patients, DLTs (+): 1
Dose 10 mg, BW 40.1–45.0 kg
  number of patients, DLTs (+): 1
  number of patients, DLTs (−): 1
Dose 10 mg, BW 45.1–50.0 kg
  number of patients, DLTs (+): 2
  number of patients, DLTs (−): 1
Dose 10 mg, BW 50.1–55.0 kg
  number of patients, DLTs (+): 2
Dose 10 mg, BW 55.1–60.0 kg
  number of patients, DLTs (+): 2
Dose 10 mg, BW 60.1–65.0 kg
  number of patients, DLTs (−): 1
Dose 10 mg, BW 66.1–70.0 kg
  number of patients, DLTs (−): 1
[2]
  Adverse event, n: Diarrhea: 0
  Adverse event, n: Dysgeusia: 1
  Adverse event, n: Epistaxis: 2
  Adverse event, n: High cholesterol: 4
  Adverse event, n: Hyperglycemia: 2
  Adverse event, n: Hypertriglyceridemia: 2
  Adverse event, n: Hypokalemia: 2
  Adverse event, n: Interstitial lung disease: 0
  Adverse event, n: Malaise: 1
  Adverse event, n: Mucositis oral: 2
  Adverse event, n: Neutrophil count decreased: 0
  Adverse event, n: Platelet decrease: 2
  Adverse event, n: Rash: 3
[3]
  Adverse event, n: Diarrhea: 1
  Adverse event, n: Dysgeusia: 1
  Adverse event, n: Epistaxis: 0
  Adverse event, n: High cholesterol: 0
  Adverse event, n: Hyperglycemia: 0
  Adverse event, n: Hypertriglyceridemia: 1
  Adverse event, n: Hypokalemia: 0
  Adverse event, n: Interstitial lung disease: 1
  Adverse event, n: Malaise: 1
  Adverse event, n: Mucositis oral: 4
  Adverse event, n: Neutrophil count decreased: 0
  Adverse event, n: Platelet decrease: 0
  Adverse event, n: Rash: 1

Source: article PMC9520775, “Everolimus pharmacokinetics and exposure-response relationship in Japanese patients with advanced breast cancer” (Frontiers in Pharmacology, 2022)
